# In patent publication US12473304B2, “Heterocyclic PAD4 inhibitors” (BRISTOL-MYERS SQUIBB COMPANY, priority 2020, dated 2025):
# Molecular target: human PAD4 (hPAD4) (Homo sapiens (Human), UniProt Q9UM07)
# Test: RFMS Human PAD4 Functional Assay 1
# Type: biochemical
# Conditions: RFMS assay 1; 5 nM hPAD4, 250 μM BAEE substrate, 50 μM calcium, 37° C.
# Procedure, shortened: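 Recombinant hPAD4 (5 nM) was preincubated with compound (top 50 μM, 0.5% DMSO) for 30 min at 37 °C, then reacted with 250 μM BAEE for 90 min at 37 °C in pH 7.5 HEPES buffer with 50 μM calcium and 5 μM TPEN. Product was derivatized with phenyl glyoxal and quantified by RapidFire MS.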
# human PAD4 (hPAD4), sequence (Q9UM07 whole entry): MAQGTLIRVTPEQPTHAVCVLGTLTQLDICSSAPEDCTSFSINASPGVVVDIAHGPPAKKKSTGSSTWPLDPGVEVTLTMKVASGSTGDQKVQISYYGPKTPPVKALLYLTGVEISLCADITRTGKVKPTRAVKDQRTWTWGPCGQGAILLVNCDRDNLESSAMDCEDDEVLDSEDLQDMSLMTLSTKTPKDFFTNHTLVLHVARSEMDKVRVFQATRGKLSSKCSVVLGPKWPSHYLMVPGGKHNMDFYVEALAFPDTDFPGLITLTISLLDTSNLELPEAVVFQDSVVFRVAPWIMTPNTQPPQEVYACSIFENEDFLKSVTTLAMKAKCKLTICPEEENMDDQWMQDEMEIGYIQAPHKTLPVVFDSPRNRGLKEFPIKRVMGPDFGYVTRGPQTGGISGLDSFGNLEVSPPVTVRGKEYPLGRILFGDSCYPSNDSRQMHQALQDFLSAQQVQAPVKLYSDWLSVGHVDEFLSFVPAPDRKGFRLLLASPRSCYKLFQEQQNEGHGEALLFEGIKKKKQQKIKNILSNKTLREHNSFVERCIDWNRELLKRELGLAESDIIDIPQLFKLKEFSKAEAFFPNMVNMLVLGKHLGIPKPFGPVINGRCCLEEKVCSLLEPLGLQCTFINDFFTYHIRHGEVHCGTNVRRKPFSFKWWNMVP
row,SMILES,IC50 [nM]
1,"CO[C@H](C)C(=O)N1CC(c2cccc3cc(-c4nn5cc(C(=O)N6C[C@H](N)C[C@@H](F)C6)ccc5c4C)n(CC4CC4)c23)C1 [Example 540, (R)-1-(3-(2-(6-((3R,5R)-3-Amino-5-fluoropiperidine-1-carbonyl)-3-methylpyrazolo[1,5-a]pyridin-2-yl)-1-(cyclopropylmethyl)-1H-indol-7-yl)azetidin-1-yl)-2-methoxypropan-1-one]",1100
2,"CO[C@H](C)C(=O)N1CC(c2cccc3cc(-c4nn5cc(C(=O)N6CCC[C@@H](N)C6)ccc5c4C)n(CC4CC4)c23)C1 [Example 541, (R)-1-(3-(2-(6-((R)-3-Aminopiperidine-1-carbonyl)-3-methylpyrazolo[1,5-a]pyridin-2-yl)-1-(cyclopropylmethyl)-1H-indol-7-yl)azetidin-1-yl)-2-methoxypropan-1-one]",2530
3,"CO[C@@H](C)C(=O)N1CC(c2cccc3cc(-c4nn5cc(C(=O)N6C[C@H](N)C[C@@H](F)C6)ccc5c4C)n(CC4CC4)c23)C1 [Example 542, (S)-1-(3-(2-(6-((3R,5R)-3-Amino-5-fluoropiperidine-1-carbonyl)-3-methylpyrazolo[1,5-a]pyridin-2-yl)-1-(cyclopropylmethyl)-1H-indol-7-yl)azetidin-1-yl)-2-methoxypropan-1-one]",580
4,"CO[C@@H](C)C(=O)N1CC(c2cccc3cc(-c4nn5cc(C(=O)N6CCC[C@@H](N)C6)ccc5c4C)n(CC4CC4)c23)C1 [Example 543, (S)-1-(3-(2-(6-((R)-3-aminopiperidine-1-carbonyl)-3-methylpyrazolo[1,5-a]pyridin-2-yl)-1-(cyclopropylmethyl)-1H-indol-7-yl)azetidin-1-yl)-2-methoxypropan-1-one]",630
5,"COCC(=O)N1CC(c2cccc3cc(-c4nn5cc(C(=O)N6CCC[C@@H](N)C6)ccc5c4C)n(CC4CC4)c23)C1 [Example 546, (R)-1-(3-(2-(6-(3-Aminopiperidine-1-carbonyl)-3-methylpyrazolo[1,5-a]pyridin-2-yl)-1-(cyclopropylmethyl)-1H-indol-7-yl)azetidin-1-yl)-2-methoxyethan-1-one]",560
6,"COCC(=O)N1CC(c2cccc3cc(-c4nn5cc(C(=O)N6C[C@H](N)C[C@@H](F)C6)ccc5c4C)n(CC4CC4)c23)C1 [Example 547, 1-(3-(2-(6-((3R,5R)-3-Amino-5-fluoropiperidine-1-carbonyl)-3-methylpyrazolo[1,5-a]pyridin-2-yl)-1-(cyclopropylmethyl)-1H-indol-7-yl)azetidin-1-yl)-2-methoxyethan-1-one]",490
7,"CC(=O)N1CC(c2cccc3cc(-c4nn5cc(C(=O)N6C[C@H](N)C[C@@H](F)C6)ccc5c4C)n(CC4CC4)c23)C1 [Example 548, 1-(3-(2-(6-((3R,5R)-3-Amino-5-fluoropiperidine-1-carbonyl)-3-methylpyrazolo[1,5-a]pyridin-2-yl)-1-(cyclopropylmethyl)-1H-indol-7-yl)azetidin-1-yl)ethan-1-one]",170
8,"COc1cc(C(=O)N2CCC[C@@H](N)C2)cn2nc(-c3cc4cccc(OC[C@H]5CCC(=O)N5)c4n3CC3CC3)c(C)c12 [Example 561, (R)-5-(((2-(6-((R)-3-Aminopiperidine-1-carbonyl)-4-methoxy-3-methylpyrazolo[1,5-a]pyridin-2-yl)-1-(cyclopropylmethyl)-1H-indol-7-yl)oxy)methyl)pyrrolidin-2-one]",640

# The next molecules have a lower IC50 than those just listed; values first:
row,IC50 [nM],SMILES
1,130,"Cc1c(-c2cc3cccc(C4CN(C(=O)[C@H]5CC[C@@H](O)CC5)C4)c3n2CC2CC2)nn2cc(C(=O)N3CCC[C@@H](N)C3)ccc12 [Example 539, ((R)-3-Aminopiperidin-1-yl)(2-(1-(cyclopropylmethyl)-7-(1-((1s,4s)-4-hydroxycyclohexane-1-carbonyl)azetidin-3-yl)-1H-indol-2-yl)-3-methylpyrazolo[1,5-a]pyridin-6-yl)methanone]"
2,10,"CC(=O)N1CC(c2cccc3cc(-c4nn5cc(C(=O)N6CC7CCC6[C@@H]7N)ccc5c4C)n(CC4CC4)c23)C1 (stereo partly drawn) [Example 549, 1-(3-(2-(6-((7R)-7-Amino-2-azabicyclo[2.2.1]heptane-2-carbonyl)-3-methylpyrazolo[1,5-a]pyridin-2-yl)-1-(cyclopropylmethyl)-1H-indol-7-yl)azetidin-1-yl)ethan-1-one]"
3,50,"COc1cc(C(=O)N2C[C@H](N)C[C@@H](F)C2)cn2nc(-c3cc4cccc(OC[C@H]5CCC(=O)N5)c4n3CC3CC3)c(C)c12 [Example 550, (R)-5-(((2-(6-((3R,5R)-3-amino-5-fluoropiperidine-1-carbonyl)-4-methoxy-3-methylpyrazolo[1,5-a]pyridin-2-yl)-1-(cyclopropylmethyl)-1H-indol-7-yl)oxy)methyl)pyrrolidin-2-one]"
4,30,"COc1cc(C(=O)N2CCC[C@@H](N)C2)cn2nc(-c3cc4cccc(OCCn5cncn5)c4n3CC3CC3)c(C)c12 [Example 555, (R)-(2-(7-(2-(1H-1,2,4-Triazol-1-yl)ethoxy)-1-(cyclopropylmethyl)-1H-indol-2-yl)-4-methoxy-3-methylpyrazolo[1,5-a]pyridin-6-yl)(3-aminopiperidin-1-yl)methanone]"
5,20,"COc1cc(C(=O)N2C[C@H](N)C[C@@H](F)C2)cn2nc(-c3cc4cccc(OCCn5cncn5)c4n3CC3CC3)c(C)c12 [Example 556, (2-(7-(2-(1H-1,2,4-Triazol-1-yl)ethoxy)-1-(cyclopropylmethyl)-1H-indol-2-yl)-4-methoxy-3-methylpyrazolo[1,5-a]pyridin-6-yl)((3R,5R)-3-amino-5-fluoropiperidin-1-yl)methanone]"
6,10,"COc1cc(C(=O)N2C[C@H](N)C[C@@H](F)C2)cn2nc(-c3cc4cccc(OCCn5cc(N)cn5)c4n3CC3CC3)c(C)c12 [Example 557, (2-(7-(2-(4-Amino-1H-pyrazol-1-yl)ethoxy)-1-(cyclopropylmethyl)-1H-indol-2-yl)-4-methoxy-3-methylpyrazolo[1,5-a]pyridin-6-yl)((3R,5R)-3-amino-5-fluoropiperidin-1-yl)methanone]"
7,100,"COc1cc(C(=O)N2CCC[C@@H](N)C2)cn2nc(-c3cc4cccc(OCCn5cc(N)cn5)c4n3CC3CC3)c(C)c12 [Example 558, (R)-(2-(7-(2-(4-Amino-1H-pyrazol-1-yl)ethoxy)-1-(cyclopropylmethyl)-1H-indol-2-yl)-4-methoxy-3-methylpyrazolo[1,5-a]pyridin-6-yl)(3-aminopiperidin-1-yl)methanone]"
8,80,"COc1cc(C(=O)N2CCC[C@@H](N)C2)cn2nc(-c3cc4cccc(OC[C@@H]5CCC(=O)N5)c4n3CC3CC3)c(C)c12 [Example 559, (S)-5-(((2-(6-((R)-3-Aminopiperidine-1-carbonyl)-4-methoxy-3-methylpyrazolo[1,5-a]pyridin-2-yl)-1-(cyclopropylmethyl)-1H-indol-7-yl)oxy)methyl)pyrrolidin-2-one]"
9,160,"COc1cc(C(=O)N2C[C@H](N)C[C@@H](F)C2)cn2nc(-c3cc4cccc(OC[C@@H]5CCC(=O)N5)c4n3CC3CC3)c(C)c12 [Example 560, (S)-5-(((2-(6-((3R,5R)-3-Amino-5-fluoropiperidine-1-carbonyl)-4-methoxy-3-methylpyrazolo[1,5-a]pyridin-2-yl)-1-(cyclopropylmethyl)-1H-indol-7-yl)oxy)methyl)pyrrolidin-2-one]"
